Where two headings read alike, the source gives them in different places.
Test system: DQ0602
Assay type: binding, human
Conditions: for % Read #1 / Read #1: replicate 1; for % Average: mean of two reads; for % Read #2 / Read #2: replicate 2; for Average: mean of the two raw reads; for Read #1 / Read #2: raw signal read
[1] = % of Bio-EBV binding, first assay (02/04/2016, 07/15/2016 or 08/11/2016, by peptide)
[2] = % of Bio-EBV binding, repeat assay (07/19/2016, 07/18/2016 or 08/12/2016, by peptide)
[3] = first assay (02/04/2016, 07/15/2016 or 08/11/2016, by peptide)
[4] = repeat assay (07/19/2016, 07/18/2016 or 08/12/2016, by peptide)

With “HDSNKGVTAACPH [HA143-155 146N, synthetic 13-mer hemagglutinin peptide containing wild-type 146N]” the “Average (two assays)” value was 43.7826%, the “mean of Bio-EBV epitope binding ± SD” value (40 μM competitor peptide, 25 nM DQ0602, 100 nM HLA-DM, 1 μM Bio-EBV, acetate pH 4.6, 3 days at 37°C, duplicate, Eu-streptavidin TRF, lower percentage = stronger competitor) was 43.78% ± 1.34% and the “% Read #1” value (% of Bio-EBV binding (Bio-EBV average = 100), first assay (02/04/2016, 07/15/2016 or 08/11/2016, by peptide)) was 41.1935%. The “% Average” value [1] was 42.8329%, the “% Average” value [2] was 44.7324% and the “% Read #1” value [2] was 43.7047%. For the same sequence, the “% Read #2” value [1] was 44.4722%, the “% Read #2” value [2] was 45.7602% and the Average [3] was 8060.5. For the same sequence, the Average [4] was 7464.5, the “Read #1” value (first assay (02/04/2016, 07/15/2016 or 08/11/2016, by peptide), competition against Bio-EBV epitope) was 7752 and the “Read #1” value [4] was 7293. The “Read #2” value [3] was 8369 and the “Read #2” value [4] was 7636.

With YDDEEFLRYLWR [HCRTR2_34-45] the “binding to DQ0602 (in words)” value (competition with Bio-EBV epitope, 40 μM peptide, […]) was “did not appear to bind to DQ0602”.

Reference: publication PMC5722318, “Absence of anti-hypocretin receptor 2 autoantibodies in post pandemrix narcolepsy cases” (PLoS ONE, 2017)
